Experimental data from patent US9801373B2, “Compounds for alleviating phosphate starvation symptoms in plants” (Commissariat a l'Energie Atomique et aux Energies …, priority 2012, dated 2017).
“Also recorded” adds a separate entry of the source.

Assays:
Assay type in all cases: in vivo, Arabidopsis thaliana
[1] = system: phosphatase activity; experiment: Phosphatase activity on root samples; settings: 7-days-old plants, −Pi+PTN1 40 μM, FIG. 4
Protocol: Soluble proteins were extracted with 50 mM TRIS pH 7.4 and 1 mM DTE (1,4-Dithioerythritol, Sigma, 6892-68-8). The protein concentration was determined by the Bradford methods, using albumin from bovine serum (BSA, Sigma, 9048-46-8) as a standard. The phosphatase activity in solution was determined as previously described by Kolari and Sarjala, (1995), by measuring the release of nitrophenol from 0.6 mM p-nitrophenylphosphate in 50 mM sodium acetate pH 5. Reactions were incubated at 30° C. for […] and were stopped with 10% of Na2CO3, after which the absorbance at 405 nm was measured.

[2] = system: PAP12, PAP17 and PAP22 genes; experiment: Expression of acid phosphatase (PAP) genes; settings: −Pi
Protocol: Plant RNA was extracted with the RNeasy kit (QIAGEN, France). For transcriptome data, RNA were analysed by the CATMA technology (Complete Arabidopsis Transcriptome Microarray). For qPCR, poly(dT) cDNA were prepared from 500 ng total RNA with Superscript III reverse transcriptase (Invitrogen, France) and analysed on a LightCycler 480 apparatus (Roche Diagnostics, France) with the SYBR Green I Master kit (Roche Diagnostics, France) according to the manufacturer's instructions. Targets were quantified with specific primer pairs designed with Primer3 website (http://frodo.wi.mit.edu/primer3/) (see Table II below). Biological triplicates were performed for all experiments. Expression levels were normalized using At2g16600, At3g04120, At1g35160 and At1g32050 genes.

[3] = system: anthocyanin accumulation; experiment: Anthocyanins content; settings: FIG. 10 (C)
Protocol: Lipids and anthocyanins were analyzed as previously described by Jouhet (2003) and Ticconi (2001).

## O=c1c(Sc2ccc(Cl)cc2)c(Sc2ccc(Cl)cc2)c1=O [PTN1]
[1]
  phosphatase activity: not altered; also recorded: did not impact the phosphatase activity
[2]
  expression level of PAP12, PAP17 and PAP22 genes: reduced the expression level
[3]
  anthocyanin accumulated, less than control grown on −Pi: around 60%
